In patent US11655221B2, “Certain (2S)-N-[(1S)-1-cyano-2-phenylethyl]-1,4-oxazepane-2-carboxamides as dipeptidyl peptidase 1 inhibitors” (AstraZeneca AB, priority 2014, dated 2023):

How the values were obtained:
[1] = Test B: In-vitro competitive aortic tissue binding assay; parameters: species or system rat; settings: 100 μM test compound, competition with [14C]-labelled WO2010/128324 Ex. 3, categories strong binder, medium binder, no binder
Experimental: Test B: In-Vitro Competitive Aortic Tissue Binding Assay
Aortic homogenate was prepared from the thoracic aortae of Han Wistar rats. Freshly isolated to thoracic aortae were frozen, and later thawed and stripped of non-elastic material.
Homogenate concentration was adjusted to 30 mg/mL in Puck's saline, and aliquots were stored at −80° C. until use. Positive and negative control compounds and test compounds were made up to 100 mM in DMSO, and added to 1 mL aliquots of aortic homogenate in Puck's saline for a final concentration of 100 μM. Homogenate samples were pre-incubated with test compounds at 37° C., rotating, overnight. [^14C]4-Amino-N-[(1S)-1-cyano-2-(4′-cyanobiphenyl-4-yl)ethyl]tetrahydro-2H-pyran-4-carboxamide was then added to all samples to a final concentration of 100 μM, and samples were incubated at 37° C., rotating, for a further 2 h. Protein was precipitated from each sample by the addition of 10 mL acetone, pre-chilled to −20° C. Samples were left overnight at −20° C. to allow complete precipitation. Precipitate was pelleted by centrifugation at 4,500×g at 4° C. for 20 min, an aliquot of supernatant was removed for analysis, and the remainder of the supernatant discarded. Precipitate was washed by resuspension in 10 mL 80% methanol in distilled water, and re-pelleted by centrifugation at 4,500×g at 4° C. for 20 min. […] After final wash, precipitate was air-dried, and dissolved overnight in 1 mL NCSII Tissue Solubiliser. 1 mL aliquots of supernatants were added to 5 mL Ultima Gold scintillation fluid (Perkin Elmer, MA, U.S.A.), and 1 mL solubilised pellets were added to 5 mL Hionic-Fluor scintillation fluid (Perkin Elmer, Mass., U.S.A.). Radioactivity of samples was determined on a Beckman LS6500 multipurpose scintillation counter (Beckman Coulter, IN, U.S.A.). […] Duplicate samples were tested for each compound on each experimental occasion, and at least two experiments were run for each test compound. […] 1-way ANOVA and Bonferroni's multiple comparison tests were performed to calculate significance of differences from vehicle control.

[2] = Quantitative whole-body autoradiography (QWBA), aortic retention; format: in vivo
[3] = molecular target: recombinant human DPP1 (rhDPP1) (Homo sapiens (Human), UniProt P53634); assay: Test A1: Fluorescence assay for recombinant human (RH) DPP1; format: biochemical; settings: Test A1, H-Gly-Arg-AMC substrate, 22° C. (Examples 1-35)
Chain of recombinant human DPP1 (rhDPP1) (P53634 231-394): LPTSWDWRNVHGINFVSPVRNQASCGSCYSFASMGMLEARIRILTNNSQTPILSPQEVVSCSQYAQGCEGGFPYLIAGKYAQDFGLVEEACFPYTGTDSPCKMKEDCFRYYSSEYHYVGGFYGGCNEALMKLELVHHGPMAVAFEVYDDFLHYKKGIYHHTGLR
Chain of recombinant human DPP1 (rhDPP1) (P53634 25-143): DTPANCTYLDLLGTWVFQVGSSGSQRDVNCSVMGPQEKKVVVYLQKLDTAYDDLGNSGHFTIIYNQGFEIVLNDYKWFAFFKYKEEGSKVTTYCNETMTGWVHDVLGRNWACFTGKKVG
Chain of recombinant human DPP1 (rhDPP1) (P53634 395-463): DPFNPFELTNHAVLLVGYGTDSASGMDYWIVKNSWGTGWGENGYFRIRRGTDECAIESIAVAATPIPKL
Experimental: Test A1: Fluorescence Assay for Recombinant Human (RH) DPP1
The activity of DPP1 was determined by measuring the enzymatic release of aminomethyl coumarin (AMC) from the peptide substrate (H-Gly-Arg-AMC), which leads to an increase in fluorescence intensity at λex=350 nm and λem=450 nm. The assay was carried out in black 384 well plates in a final volume of 50 μl at 22° C. The assay conditions contained the following: 25 mM piperazine buffer pH 5.0; 50 mM NaCl, 5 mM DTT; 0.01% (v/v) Triton X-100; 100 μM H-Gly-Arg-AMC and rhDPP1 (˜50 pM). […] Routinely, inhibitors were pre-incubated with rhDPP1 for 30-60 min prior to the addition of the peptide substrate to start the reaction for a further 60 min at 22° C.

Aortic Tissue Binding [1]	aortic retention in rat QWBA studies [2]	DPP1 activity, pIC50 [3]	Compound
No binder			Cn1c(=O)oc2ccc(-c3ccc(C[C@@H](C#N)NC(=O)[C@@H]4CNCCCO4)cc3)cc21 [Example 2, (2S)—N-{(1S)-1-Cyano-2-[4-(3-methyl-2-oxo-2,3-dihydro-1,3-benzoxazol-5-yl)phenyl]ethyl}-1,4-oxazepane-2-carboxamide]
Binder			N#Cc1ccc(-c2ccc(C[C@@H](C#N)NC(=O)[C@@H]3CCCCN3)cc2)cc1 [WO2009/074829 (Example 24)]
Strong binder (reference)	high level of aortic retention		N#Cc1ccc(-c2ccc(C[C@@H](C#N)NC(=O)C3(N)CCOCC3)cc2)cc1 [WO2010/128324 (Ex. 3), 4-amino-N-[(1S)-1-cyano-2-(4′-cyanobiphenyl-4-yl)ethyl]tetrahydro-2H-pyran-4-carboxamide]
Medium binder			Cn1c(=O)oc2ccc(-c3ccc(C[C@@H](C#N)NC(=O)[C@@H]4CCCCN4)cc3)cc21 [WO2009/074829 (Example 96)]
		7.61	CN1C(=O)CNc2ccc(-c3ccc(C[C@@H](C#N)NC(=O)[C@@H]4CNCCCO4)cc3)cc21 [Example 35, (2S)—N-{(1S)-1-Cyano-2-[4-(4-methyl-3-oxo-1,2,3,4-tetrahydroquinoxalin-6-yl)phenyl]ethyl}-1,4-oxazepane-2-carboxamide]
Strong binder			Cn1c(=O)oc2ccc(-c3ccc(C[C@@H](C#N)NC(=O)C4(N)CCOCC4)cc3)cc21 [WO2010/128324 (Example 17)]
